Bridge positions count the residues as written; N and C are the ends. Square brackets hold non-standard residues; d marks the D form. Peptide text beside a SMILES is read from it. * marks the point of attachment. FITC = O=C1OC2(c3ccc(O)cc3Oc3cc(O)ccc32)c2ccc(NC(=S)*)cc21; S5 = C=CCCC[C@](C)(N)C(=O)O; Nle = CCCC[C@H](N)C(=O)O; βAla = NCCC(=O)O
Key:
GST-NLRP3^PYD = target: T1, GST-NLRP3^PYD (Homo sapiens, UniProt Q96P20); assay: KD (μM) | GST-NLRP3^PYD
T1 construct: human NLRP3 (residues 3-110) was cloned into a pET-21b vector; made in house; host or cells: E. coli BL21 DE3
T1 sequence (Q96P20 3-110): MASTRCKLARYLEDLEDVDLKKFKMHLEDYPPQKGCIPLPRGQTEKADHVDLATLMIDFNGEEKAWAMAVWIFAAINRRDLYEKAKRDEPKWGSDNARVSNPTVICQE
Text: (§1) Table printed on a drawing sheet, FIG. 10
Head of the field: KD (μM) | GST-NLRP3^PYD
(§2) The patent's description of the figure: FIG. 10 is a table showing the results from a fluorescence anisotropy binding assay to determine the accurate binding affinities of stapled peptides fPOP1-H2 (SEQ ID NO: 2), fSAH-POP1-1 (SEQ ID NO: 1), fSAH-POP1-3 (SEQ ID NO: 3), fSAH-POP1-4 (SEQ ID NO: 4), fSAH-POP1-5 (SEQ ID NO: 5), fSAH-POP1-6 (SEQ ID NO: 6), fSAH-POP1-7 (SEQ ID NO: 7), fSAH-POP1-8 (SEQ ID NO: 8), fSAH-POP1-9 (SEQ ID NO: 9), fSAH-POP1-10 (SEQ ID NO: 10), fSAH-POP1-11 (SEQ ID NO: 11), fSAH-POP1-12 (SEQ ID NO: 12), fSAH-POP1-13 (SEQ ID NO: 13), fSAH-POP1-14 (SEQ ID NO: 14), fSAH-POP1-15 (SEQ ID NO: 15), fSAH-POP1-16 (SEQ ID NO: 16), fSAH-POP1-17 (SEQ ID NO: 17), fSAH-POP1-18 (SEQ ID NO: 18), fSAH-POP1-19 (SEQ ID NO: 19), fSAH-POP1-20 (SEQ ID NO: 20), fSAH-POP1-21 (SEQ ID NO: 21), fSAH-POP1-22 (SEQ ID NO: 22), fSAH-POP1-23 (SEQ ID NO: 23), fSAH-POP1-24 (SEQ ID NO: 24), fSAH-POP1-25 (SEQ ID NO: 25), fSAH-POP1-26 (SEQ ID NO: 26), fSAH-POP1-27 (SEQ ID NO: 27), fSAH-POP1-28 (SEQ ID NO: 28), fSAH-POP1-29 (SEQ ID NO: 29), fSAH-POP1-30 (SEQ ID NO: 30), fSAH-POP1-31 (SEQ ID NO: 31).
(§3) First copying reader's note: Second part of the same figure; in the structures S5, NL (N with lowered L) and NH2 carry lowered signs, a drawn bracket joins the two S5 residues (staple), and the SEQ ID NO column is printed outside the table frame.
Where the first naming reader finds the target: head: GST-NLRP3^PYD

GST-ASC^PYD = target: T2, GST-ASC^PYD (Homo sapiens, UniProt Q9ULZ3); assay: KD (μM) | GST-ASC^PYD
T2 construct: human ASC (residues 1-106) was cloned into a pGEX-4T1 vector; made in house; host or cells: E. coli BL21 DE3
T2 sequence (Q9ULZ3 1-106): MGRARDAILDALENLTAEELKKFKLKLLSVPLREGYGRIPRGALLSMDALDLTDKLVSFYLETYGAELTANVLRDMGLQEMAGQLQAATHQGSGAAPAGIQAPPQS
Text: as §1
Head of the field: KD (μM) | GST-ASC^PYD
as §2, §3
Where the first naming reader finds the target: head: GST-ASC^PYD

| SMILES | Kd (GST-NLRP3^PYD) [µM] | Kd (GST-ASC^PYD) [µM] |
| --- | --- | --- |
| CCCC[C@H](NC(=O)[C@H](Cc1c[nH]c2ccccc12)NC(=O)[C@H](CCC(N)=O)NC(=O)[C@]1(C)CCCC=CCCC[C@](C)(NC(=O)[C@H](CCC(N)=O)NC(=O)CCNC(=S)Nc2ccc3c(c2)C(=O)OC32c3ccc(O)cc3Oc3cc(O)ccc32)C(=O)N[C@@H](CC(C)C)C(=O)N[C@@H](CCCNC(=N)N)C(=O)N[C@@H](CCCNC(=N)N)C(=O)N1)C(=O)N[C@@H](CC(C)C)C(=O)NCC(=O)N[C@H](C(=O)N[C@@H](C)C(N)=O)[C@@H](C)O [fSAH-POP1-28] ({FITC-βAla}-Q[S5]LRR[S5]QW[Nle]LGTA-NH2; staple 2-6) | 7.7 ± 1.5 | 7.2 ± 1.1 |
| CCCC[C@H](NC(=O)[C@H](Cc1c[nH]c2ccccc12)NC(=O)[C@H](CCCCN)NC(=O)[C@]1(C)CCCC=CCCC[C@](C)(NC(=O)[C@H](CCC(N)=O)NC(=O)CCNC(=S)Nc2ccc3c(c2)C(=O)OC32c3ccc(O)cc3Oc3cc(O)ccc32)C(=O)N[C@@H](CO)C(=O)N[C@@H](CCCNC(=N)N)C(=O)N[C@@H](CCCNC(=N)N)C(=O)N1)C(=O)N[C@@H](CCC(N)=O)C(=O)N[C@@H](Cc1c[nH]c2ccccc12)C(=O)N[C@H](C(=O)N[C@@H](C)C(N)=O)[C@@H](C)O [fSAH-POP1-27] ({FITC-βAla}-Q[S5]SRR[S5]KW[Nle]QWTA-NH2; staple 2-6) | 7.9 ± 1.1 | 3.9 ± 0.68 |
| CCCC[C@H](NC(=O)[C@H](Cc1c[nH]c2ccccc12)NC(=O)[C@H](CCC(N)=O)NC(=O)[C@]1(C)CCCC=CCCC[C@](C)(NC(=O)[C@H](CCC(N)=O)NC(=O)CCNC(=S)Nc2ccc3c(c2)C(=O)OC32c3ccc(O)cc3Oc3cc(O)ccc32)C(=O)N[C@@H](CO)C(=O)N[C@@H](CCCNC(=N)N)C(=O)N[C@@H](CCCNC(=N)N)C(=O)N1)C(=O)N[C@@H](CCC(N)=O)C(=O)N[C@@H](Cc1c[nH]c2ccccc12)C(=O)N[C@H](C(=O)N[C@@H](C)C(N)=O)[C@@H](C)O [fSAH-POP1-26] ({FITC-βAla}-Q[S5]SRR[S5]QW[Nle]QWTA-NH2; staple 2-6) | 11 ± 1.1 | 5 ± 0.79 |

The next compounds have a lower Kd (GST-NLRP3^PYD) than those just listed; values first:

| Kd (GST-NLRP3^PYD) [µM] | Kd (GST-ASC^PYD) [µM] | SMILES |
| --- | --- | --- |
| 6.7 ± 1.2 | 7.5 ± 1.1 | CCCC[C@H](NC(=O)[C@H](Cc1c[nH]c2ccccc12)NC(=O)[C@H](CCC(N)=O)NC(=O)[C@]1(C)CCCC=CCCC[C@](C)(NC(=O)[C@H](CCC(N)=O)NC(=O)CCNC(=S)Nc2ccc3c(c2)C(=O)OC32c3ccc(O)cc3Oc3cc(O)ccc32)C(=O)N[C@@H](CC(C)C)C(=O)N[C@@H](CCCNC(=N)N)C(=O)N[C@@H](CCCNC(=N)N)C(=O)N1)C(=O)N[C@@H](CC(C)C)C(=O)N[C@@H](CC(N)=O)C(=O)N[C@H](C(=O)N[C@@H](C)C(N)=O)[C@@H](C)O [fSAH-POP1-30] ({FITC-βAla}-Q[S5]LRR[S5]QW[Nle]LNTA-NH2; staple 2-6) |
| 6 ± 0.92 | 5.5 ± 0.69 | CCCC[C@H](NC(=O)[C@H](Cc1c[nH]c2ccccc12)NC(=O)[C@H](CCC(N)=O)NC(=O)[C@]1(C)CCCC=CCCC[C@](C)(NC(=O)[C@H](CCC(N)=O)NC(=O)CCNC(=S)Nc2ccc3c(c2)C(=O)OC32c3ccc(O)cc3Oc3cc(O)ccc32)C(=O)N[C@@H](CC(C)C)C(=O)N[C@@H](CCCNC(=N)N)C(=O)N[C@@H](CCCNC(=N)N)C(=O)N1)C(=O)N[C@@H](CC(C)C)C(=O)N[C@@H](CC(=O)O)C(=O)N[C@H](C(=O)N[C@@H](C)C(N)=O)[C@@H](C)O [fSAH-POP1-29] ({FITC-βAla}-Q[S5]LRR[S5]QW[Nle]LDTA-NH2; staple 2-6) |
| 4.7 ± 0.54 | 7.8 ± 1.1 | CCCC[C@H](NC(=O)[C@H](Cc1c[nH]c2ccccc12)NC(=O)[C@H](CCC(N)=O)NC(=O)[C@]1(C)CCCC=CCCC[C@](C)(NC(=O)[C@H](CCC(N)=O)NC(=O)CCNC(=S)Nc2ccc3c(c2)C(=O)OC32c3ccc(O)cc3Oc3cc(O)ccc32)C(=O)N[C@@H](CC(C)C)C(=O)N[C@@H](CCCNC(=N)N)C(=O)N[C@@H](CCCNC(=N)N)C(=O)N1)C(=O)N[C@@H](CC(C)C)C(=O)N[C@@H](CO)C(=O)N[C@H](C(=O)N[C@@H](C)C(N)=O)[C@@H](C)O [fSAH-POP1-31] ({FITC-βAla}-Q[S5]LRR[S5]QW[Nle]LSTA-NH2; staple 2-6) |
